This note sets out measurements from patent publication US20160152607A1, “MALEIC ACID DERIVATIVE, PRODUCTION METHOD FOR SAME, AND ANTI-CANCER COMPOSITION COMPRISING SAME” (Medicinal Bioconvergence Research Center, priority 2013, published 2016).

What all share (type): cell-based
Data set [1] deals with H460 cells. Put plainly: MTT cytotoxicity on lung cancer cells (H460). The conditions noted are these: medium with 0.5% serum. The procedure:
H460 cells were dispensed in medium containing 0.5% serum at 1×10^4 per well, and were treated with the compounds. MTT solution (5 mg/mL) was diluted 10-fold, and dispensed at 10 μl per well, followed by culturing for 30 minutes. The precipitate was dissolved in 100 μl of DMSO, and the absorbance was measured using a microplate reader (Sunrise, TECAN) at a wavelength of […].

Data set [2] is described as follows: Cytotoxicity on normal cell line VERO (cell counting kit-8, WST-8). Conditions: African green monkey, VERO cells (kidney cell line), read-out: Cytotoxicity CC50 (μM), ERO. The method, then: (§1) For the normal cell lines, five cell lines, VERO (African green monkey kidney cell line), HFL-1 (human embryonic lung cell line), L929 (NCTC clone 929, mouse fibroblast cell line), NIH 3T3 (mouse embryonic fibroblast cell line), and CHO-K1 (Chinese hamster overy cell line) were used.
(§2) For the cytotoxicity, all the cells were seeded at 1×10^4, and for a generalized test for investigating cell viability, the CC50 value, which is the concentration of a compound killing 50% of cells, was measured by cell counting kit-8 assay using tetrazolium salt named WST-8 displaying a pale yellow color.

The nature of data set [3]: Cytotoxicity on normal cell line HFL-1 (cell counting kit-8, WST-8). Conditions: human, HFL-1 cells (embryonic lung cell line); HFL-1 normal cell line; read-out: Cytotoxicity CC50 (μM), FL-1. The method, then:
as §1, §2
In general terms: Tetrazolium assays rely on reduction of a dye to a coloured formazan, in cell work by metabolically active cells.

Data set [4] is described as follows: Cytotoxicity on normal cell line L929 (cell counting kit-8, WST-8). The conditions noted are these: mouse, L929 cells (NCTC clone 929, fibroblast cell line). The procedure:
as §1, §2

Data set [5] is described as follows: Cytotoxicity on normal cell line NIH 3T3 (cell counting kit-8, WST-8). The conditions noted are these: mouse, NIH 3T3 cells (embryonic fibroblast cell line); NIH 3T3 normal cell line. The method, then: as §1, §2
The nature of data set [6]: Cytotoxicity on normal cell line CHO-K1 (cell counting kit-8, WST-8). Conditions: Chinese hamster, CHO-K1 cells (ovary cell line). The method, then:
as §1, §2

Structures are written as SMILES. A value given as a limit tells only on which side of the number the result lay.

In the case of `Cc1ccnc(NC(=O)/C=C\C(=O)N2CCCCC2)c1` [Example 1-14, (Z)—N-(4-methylpyridin-2-yl)-4-oxo-4-(piperidin-1-yl)but-2-enamide], the “Inhibition of proliferation of H460 cells (MTT, FIG. 1)” value in data set [1] is “significantly inhibited the proliferation of H460 cells in a dose-dependent manner”.
Usually CC50 stands for the concentration that lowers cell viability or growth by half. For the compound `Cc1ccnc(NC(=O)/C=C\C(=O)N2CCOCC2)c1` [Example 1-20, (Z)—N-(4-methylpyridin-2-yl)-4-morpholino-4-oxobut-2-enamide], in data set [1], the “Inhibition of proliferation of H460 cells (MTT, FIG. 1)” value is reported as “significantly inhibited the proliferation of H460 cells in a dose-dependent manner”. Moreover, the CC50 is 100 µM in data set [2]; 100 µM in data set [3]; 100 µM in data set [4]; > 100 µM in data set [5]; > 100 µM in data set [6].
